Values quoted from earlier work as cited in PMC7395068, “The evolution of strategies to minimise the risk of human drug-induced liver injury (DILI) in drug discovery and development” (Archives of Toxicology, 2020).
Read-outs that look alike come from different tables or passages of the source.

Key:
[1] = cited from earlier work
[2] = cited from earlier work; remark: listed apart in the source
PHH spheroids = settings: In vitro Assay; ref Vorrink 2018; cited from earlier work
human hepatocytes = settings: cited from earlier work

SMILES	DILI +VE (5-8), DILI -VE (-4) ([1]; ref Chen 2016)	DILI severity category ([1]; ref Chen 2016)	In vivo DILI ([2]; ref Vorrink 2018)	In vivo DILI ([2]; ref Xu 2008)	hLiMTs ATP <20 x Cmax (PHH spheroids)	Structural based (HCI) (human hepatocytes)	Structural based (HCI) (human hepatocytes; In vitro Assay, ref Xu 2008)	DILI +VE (5-8), DILI -VE (-4) ([1]; in vivo)	DILI severity category ([1]; in vivo)	In vivo DILI ([2]; in vivo)	In vivo DILI ([2]; […])
CCCSc1ccc2nc(NC(=O)OC)[nH]c2c1 [albendazole]	+VE	vMost-DILI-Concern	+VE	+VE	-VE	+VE					
CCC1(c2ccc(N)cc2)CCC(=O)NC1=O (stereo not shown) [aminoglutethimide]			-VE	-VE	-VE		-VE				
Clc1ccc2c(c1)C(N1CCNCC1)=Nc1ccccc1O2 [amoxapine]	-VE	Ambiguous DILI-concern	-VE	-VE	-VE		-VE				
Nc1cc(-c2ccncc2)c[nH]c1=O [amrinone]	-VE	Ambiguous DILI-concern	+VE	+VE	-VE		-VE				
CC(C)COCC(CN(Cc1ccccc1)c1ccccc1)N1CCCC1 (stereo not shown) [bepridil]			+VE	+VE	+VE (IC20 < 20 × Cmax.tot cut-off)		+VE				
C[C@H](CCC(=O)O)[C@H]1CC[C@H]2[C@@H]3[C@H](O)C[C@@H]4C[C@H](O)CC[C@]4(C)[C@H]3CC[C@]12C [chenodiol]	-VE	Ambiguous DILI-concern	+VE	+VE	+VE (IC20 < 20 × Cmax.tot cut-off)		+VE				
Cc1cc(C2CCCCC2)n(O)c(=O)c1 [ciclopirox]			-VE	-VE	-VE		-VE				
COc1ccc([C@@H]2Sc3ccccc3N(CCN(C)C)C(=O)[C@@H]2OC(C)=O)cc1 [diltiazem]					-VE		-VE				
CC(CCc1ccc(O)cc1)NCCc1ccc(O)c(O)c1 (stereo not shown) [dobutamine]	-VE	vNo-DILI-Concern	-VE	-VE	-VE		-VE				
C[C@]12CCC(=O)C=C1CC[C@@H]1[C@@H]2[C@@H](O)C[C@@]2(C)[C@H]1CC[C@]2(O)C(=O)CO [hydrocortisone]					-VE		-VE	-VE	vNo-DILI-Concern	-VE	
N[C@@H](Cc1ccc(O)c(O)c1)C(=O)O [levodopa]					-VE		-VE				
NCCCC[C@H](N[C@@H](CCc1ccccc1)C(=O)O)C(=O)N1CCC[C@H]1C(=O)O [lisinopril]					+VE (IC20 < 20 × Cmax.tot cut-off)		-VE				
Clc1ccc(COC(Cn2ccnc2)c2ccc(Cl)cc2Cl)c(Cl)c1 (stereo not shown) [miconazole]					-VE		-VE				
CCc1c(C)[nH]c2c1C(=O)C(CN1CCOCC1)CC2 (stereo not shown) [molindone]			+VE	+VE	-VE		-VE				
COCCOC(=O)C1=C(C)NC(C)=C(C(=O)OC(C)C)C1c1cccc([N+](=O)[O-])c1 (stereo not shown) [nimodipine]					+VE (IC20 < 20 × Cmax.tot cut-off)		+VE				
COC(=O)C1=C(C)NC(C)=C(C(=O)OCC(C)C)C1c1ccccc1[N+](=O)[O-] (stereo not shown) [nisoldipine]	-VE	Ambiguous DILI-concern	-VE	-VE	-VE		-VE				-VE
O=C(O)c1cc(/N=N/c2ccc(S(=O)(=O)Nc3ccccn3)cc2)ccc1O [sulfasalazine]					+VE (IC20 < 20 × Cmax.tot cut-off)		+VE				
